Earlier results, collected in patent publication US12414956B2, “Method for smoking cessation” (CALISTA CAPITAL, LLC, priority 2017, dated 2025).
Like-named read-outs stand apart in the source and are kept apart here.

How the values were obtained:
[1] = after six months, clinical trials
[2] = mean, capsules, adult subjects, plasma

| Structure (SMILES) | success rate [1] | AUC ([2]; single 300 mg oral dose) | Cmax ([2]; single 300 mg oral dose) | tmax ([2]; single 300 mg oral dose) | AUC ([2]; single 600 mg oral dose) | Cmax ([2]; single 600 mg oral dose) | tmax ([2]; single 600 mg oral dose) |
| --- | --- | --- | --- | --- | --- | --- | --- |
| c1cnc2cc3c(cc2n1)[C@@H]1CNC[C@H]3C1 [CHANTIX, varenicline] | 14% | – | – | – | – | – | – |
| C=CC1=C(C(=O)O)N2C(=O)[C@@H](NC(=O)/C(=N\O)c3csc(N)n3)[C@H]2SC1 [Cefdinir, cefdinir] | – | 7.05 µg·h/mL | 1.60 µg/mL | 2.9 h | 11.1 µg·h/mL | 2.87 µg/mL | 3.0 h |
